Patent US9265808B2, “Compositions for alleviating inflammation and oxidative stress in a mammal” (priority 2004, dated 2016)
Read-outs that look alike come from different tables or passages of the source.

Assays:
HO-1 [1] = experiment: Protandim®-induced HO-1 protein in presence of signaling pathway inhibitors, SK-N-MC cells; format: cell-based, human; settings: for decrease of Protandim®-mediated increase in HO-1 expression in presence of inhibitor: 20 μM SB203580 or 1 μM rottlerin 30 min
Procedure: To identify the signaling pathway(s) involved in HO-1 promoter induction by Protandim®, different pharmacological inhibitors that specifically block each of the following pathways were used: 5-(2-benzothiazolyl)-3-ethyl-2-[2-(methylphenylamino) ethenyl]-1-phenyl-1H-benzimidazolium iodide (Akt inhibitor IV) for Akt, LY294002 for PI3-kinase, SP600125 for JNK, U0126 for MEK/ERK, SB203580 for p38MAPK, and rottlerin for PKCδ. SK-N-MC cells were preincubated in the presence of 250 nM Akt inhibitor IV, 30 μM LY294002, 1 μM rottlerin, 10 μM U0126, 20 μM SB203580, or 20 μM SP600125 for 30 min followed by exposure to 20 μg/ml Protandim® for 24 h. Cell lysates were electrophoresed and immunoblotted for HO-1. The blots were then reprobed with the antibody for β-actin. […] The intensities of the bands were quantified by densitometry using Fluor-S MultiImager and Quantity One software from Bio-Rad. HO-1 levels were corrected for β-actin expression.

[2] = pH of 1.0; cited from earlier work
HO-1 promoter [3] = experiment: HO-1 promoter luciferase reporter assay in SK-N-MC cells; format: cell-based, human; settings: concentration present in the maximum dose of Protandim® (20 μg/ml)
Procedure: (§1) The induction of HO-1 by Protandim® was tested by transient transfection of its promoter linked to the luciferase reporter gene in MIN6 cells, a mouse insulinoma cell line, and in SK-N-MC cells, a human neuroblastoma cell line, as reported in Velmurugan, K. et al., “Synergistic induction of heme oxygenase-1 by the components of the antioxidant supplement Protandim,” Free Radical Biology & Medicine, 46: 430-440 (2009), the entire disclosure of which is incorporated herein by reference.
(§2) The alcohol extract of Protandim® was prepared by shaking 675 mg of Protandim with 16.875 ml of 95% ethanol overnight at 4° C. and centrifuging at 5000 rpm (4° C.) for 5 min, and the extract (40 mg/ml) was stored at −80° C. For studies on synergy, the individual components present in 675 mg of Protandim® were extracted in the same volume of alcohol by a similar procedure. Parallel preparations of Protandim® extracts were also prepared with one of the components omitted. […] Controls were treated with the same volume of alcohol used in the treated groups. […]
(§3) After freezing and thawing, the lysates were centrifuged (10,600 g; 20 min) to collect the supernatant. Firefly luciferase and Renilla luciferase activities from transfected cells were measured using the Dual-Glo Luciferase Assay System (Promega). […]

HO-1 [4] = experiment: HO-1 protein by Western blot in MIN6 cells; format: cell-based, mouse; settings: ethanolic extracts at maximum doses of Table 10 (Protandim® 40 μg/ml)
Description: (§4) After treatment with Protandim® extracts, MIN6 and SK-N-MC cells were washed with ice-cold PBS. Cells were lysed with mammalian protein extraction reagent (Pierce, Rockford, Ill., USA) containing phosphatase inhibitors and protease inhibitor cocktail. […] Diluted samples containing equal amounts of protein were mixed with 2× Laemmli sample buffer and subjected to electrophoresis on 12% SDS-polyacrylamide gels. After transfer to polyvinylidene difluoride membranes, the membranes were blocked with TBST [20 mM Tris-HCl (pH 7.9), 8.5% NaCl, and 0.1% Tween 20] containing 5% nonfat dry milk at room temperature for 1 h and exposed to primary antibodies (1:1000) in TBST containing 5.0% BSA at 4° C. overnight. After being washed in blocking solution, the membranes were exposed to secondary antibodies conjugated to alkaline phosphatase and developed with CDP-Star reagent (New England Biolabs, Beverly, Mass., USA). The intensity of the protein bands was visualized using Fluor-S Multi-Imager and Quantity One software from Bio-Rad. […]
(§5) Cell lysates were processed for Western blot analysis of HO-1, and the blots reprobed for β-actin. The intensities of bands were quantitated by scanning in a MultiImager using Quantity One software (Bio-Rad), and HO-1 expression was corrected for β-actin levels.

HO-1 promoter [5] = experiment: HO-1 promoter luciferase reporter assay in MIN6 cells; format: cell-based, mouse; settings: concentration present in the maximum dose of Protandim® (40 μg/ml)
Procedure: as §1, §2, §3

HO-1 [6] = experiment: HO-1 protein by Western blot in SK-N-MC cells; format: cell-based, human; settings: ethanolic extracts at maximum doses of Table 10 (Protandim® 20 μg/ml)
Description: as §4, §5

[7] = Blood pressure of human subjects; settings: Subject #2, ATENOLOL 25 mg/day alone
Procedure: The approximate daily dosage of each of the components of the herb-containing composition was as follows: B. monnieri extract (200 mg), Milk Thistle extract 70-80% (300 mg), Ashwagandha powder (200 mg), Turmeric extract (95%) (100 mg), Gotu kola powder (200 mg), Aloe vera powder (200 mg), Green tea (98% Polyphenols 45% EGCG) (100 mg), and Ginko biloba leaf extract (200 mg).
The approximate daily dosage of each of the components of the herb-containing composition was as follows: B. monnieri extract (134 mg), Milk Thistle extract 70-80% (200 mg), Ashwagandha powder (134 mg), Turmeric extract (95%) (67 mg), Gotu kola powder (134 mg), Aloe vera powder (134 mg), Green tea (98% Polyphenols, 45% EGCG) (67 mg), and Ginko biloba leaf extract (134 mg).

Nrf2 = experiment: AREc32 bioassay for Nrf2 activation
Description: The assay for Nrf2 activation is based on the AREc32 cell line, developed by Dr. C. R. Wolf and colleagues of the University of Dundee, Scotland, as described in Wang, X. J. et al., “Generation of a stable antioxidant response element-driven reporter gene cell line and its use to show redoxdependent activation of Nrf2 by cancer chemotherapeutic agents,” Cancer Res. 66, 10983-10994 (2006); Hybertson, B. M. et al., “Oxidative stress in health and disease: the therapeutic potential of Nrf2 activation,” Molecular Aspects of Medicine, 32: 234-246 (2011), the entire disclosure of each of which is incorporated herein by reference. The AREc32 cell line is a stable transfectant derived from the MCF7 human breast cancer cell line. It contains a promoter with eight copies of the rat glutathione-S-transferase-A2 Antioxidant Response Element (ARE) and the SV40 promoter sequence upstream of a firefly luciferase reporter gene.
Briefly, AREc32 cells were grown in Opti-MEM (GIBCO, Carlsbad, Calif.) supplemented with 4% fetal bovine serum (FBS, GIBCO) and 1% Antibiotic-Antimycotic (GIBCO) at 37° C. and in a 10% CO 2-supplemented air atmosphere. The cells were seeded at 1% to 5% of confluent cell density in T75 tissue culture flasks and cultivated until they approached confluence. The medium was aspirated off and the adherent cells trypsinized with 1 ml of 1× Trypsin-EDTA solution (GIBCO) for 10 min. Ten milliliters of medium was added to the flask and the cells transferred to a 50 ml centrifuge tube and centrifuged at 1000 rpm for 5 min at room temperature. Cells were washed once with 10 ml of medium, then resuspended in 10 ml of medium. Cells were counted using a hemocytometer and diluted to a concentration of 50,000 cells/ml. Four hundred microliters of this cell suspension was seeded into each well of a 24-well plate (i.e. 20,000 cells/well). Seeded plates were then returned to the incubator for 24 h.
After 18-24 h the cells were reattached and growing, and ready for treatment with samples with putative Nrf2 activating activity. […] Vehicles used were aqueous or organic solvents such as ethanol or DMSO, and appropriate vehicle controls were included. The cells were then returned to the incubator for 18 h. All operations up to this point must be conducted under sterile conditions.
After 24 h the cells were checked under the microscope for any abnormalities or detachment. The medium was aspirated and the cells were washed with phosphate buffered saline, pH 7.4 (100 μl/well). Following aspiration of the wash solution, the cells were lysed by application of 0.1 M potassium phosphate buffer, pH 7.8, containing 1% Triton X-100, 2 mM dithiothreitol, 2 mM EDTA, 10% glycerol and 3.5 mM sodium pyrophosphate (100 μl/well). The plate was incubated at 4° C. for 20 min. Lysate (20 μl from each well in a new 12×75 mm glass test tube) was assayed for luciferase activity using a Monolight 3010 autoinject luminometer (Analytical Luminescence Laboratory, Ann Arbor, Mich.), automatically injecting 50 of Luciferase Assay Buffer after background measurement. Luciferase Assay Buffer was prepared by mixing 9 ml of Solution A (15 mM Tricine, pH 7.8, containing 1.5 mM ATP, 7.5 mM MgSO 4, and 5 mM dithiothreitol) with 1 ml of Solution B 10 mM D-luciferin). After a 4 delay following injection, luminescence was measured for 10 s. Relative Light Units (RLU) were recorded for the contents of each well. Fold Induction (FI) of luciferase activity was calculated by dividing the RLU obtained for the test well by the average RLU obtained for control wells (which received no putative Nrf2 activator). Each assay or control was performed in duplicate. Parameters noted were the concentration of test substance providing maximal fold induction of luciferase (Cmax), and the maximal fold induction observed (FImax).
The AREc32 cells were prepared as in Example 7. After 18-24 h the cells were reattached and growing, and ready for treatment with samples with putative Nrf2 activating activity. […]

[8] = SK-N-MC, 250 nM Akt inhibitor IV, 30 μM LY294002, 10 μM U0126, 20 μM SP600125, 30 min, then 20 μg/ml Protandim® 24 h
[9] = SK-N-MC, then 20 μg/ml Protandim® 24 h
[10] = AREc32 cells, biphasic induction

For `Oc1c2ccccc2c2c3c(cccc13)N=N2` [SP600125], the “effect of inhibitor on Protandim®-induced increase in HO-1 protein levels” value (HO-1 [1]; [8]) was “No significant effect”.
For `N#CC(=C(/N)Sc1ccccc1N)/C(C#N)=C(\N)Sc1ccccc1N` [U0126], the “effect of inhibitor on Protandim®-induced increase in HO-1 protein levels” value (HO-1 [1]) was “No significant effect”.
For `CC[n+]1c(/C=C/N(C)c2ccccc2)n(-c2ccccc2)c2ccc(-c3nc4ccccc4s3)cc21` [Akt inhibitor IV, 5-(2-benzothiazolyl)-3-ethyl-2-[2-(methylphenylamino)ethenyl]-1-phenyl-1H-benzimidazolium iodide], the “effect of inhibitor on Protandim®-induced increase in HO-1 protein levels” value (HO-1 [1]; [8]) was “significant (p<0.001) decrease”.
For `N[C@@H](CCC(=O)N[C@@H](CS)C(=O)NCC(=O)O)C(=O)O` [GSH, L-γ-glutamyl-L-cysteinyl-glycine], the “rate constant K2 against the hydroxyl radical” value [2] is given as 8.8×10^9.
For `COc1cc(/C=C/C(=O)CC(=O)/C=C/c2ccc(O)c(OC)c2)ccc1O` [Curcumin], the “HO-1 promoter induction by individual ingredient” value (HO-1 promoter [3]) was 300%, the “increase of HO-1 protein level” value (HO-1 [4]) was 6 fold and the “HO-1 promoter induction by individual ingredient” value (HO-1 promoter [5]) was 36%. The “increase of HO-1 protein level” value (HO-1 [6]) was 6 fold.
For `CC(=O)N[C@@H](CS)C(=O)O` [NAC, N-Acetyl Cysteine], the rate constant K2 against the hydroxyl radical [2] is listed as 1.36e+10 M⁻¹ s⁻¹.
Work on `CC(C)NCC(O)COc1ccc(CC(N)=O)cc1` (stereo not shown) [ATENOLOL] yielded a lowest diastolic measurement [7] of 91.
For `CC(=O)c1c(O)c(C)c(O)c(Cc2c(O)c3c(c(C(=O)/C=C/c4ccccc4)c2O)OC(C)(C)C=C3)c1O` [rottlerin], the “decrease of Protandim®-mediated increase in HO-1 expression in presence of inhibitor” value (HO-1 [1]; [9]) was 50%.
With `C[S+]([O-])CCCCN=C=S` (stereo not shown) [sulforaphane] the “maximal fold induction observed (FImax)” value (Nrf2; human, 18 h) was 21 fold.
For `CC1=C(CO)C(=O)O[C@@H]([C@@H](C)[C@H]2CC[C@H]3[C@@H]4C[C@H]5O[C@]56[C@@H](O)C=CC(=O)[C@]6(C)[C@H]4CC[C@]23C)C1` [Withaferin A], the “concentration providing maximal fold induction of luciferase (Cmax)” value (Nrf2; AREc32 cells, 18 h) was 2100 nM and the “concentration providing maximal fold induction of luciferase (Cmax)” value (Nrf2; AREc32 cells, 18 h, ethanolic extract) was 1000 ng/mL.
For `CC(C)(C)c1cc(O)ccc1O` [tert-butyl-hydroquinone], the “increase of luciferase activity” value (Nrf2; AREc32 cells, 50 μmol/L) was “up to 50 fold”.
In the case of `COC(=O)[C@]12CCC(C)(C)C[C@H]1[C@H]1C(=O)C=C3[C@@]4(C)C=C(C#N)C(=O)C(C)(C)[C@@H]4CC[C@@]3(C)[C@]1(C)CC2` [bardoxolone methyl], the “maximal fold induction observed (FImax)” value (Nrf2) is reported as 67 fold, the “lower end of concentration range producing near maximal FI” value (Nrf2; [10]) is reported as “less than 40 nM” and the upper end of concentration range producing near maximal FI (Nrf2; [10]) is reported as 0.4 µM.
For `C[S+]([O-])c1ccc(-c2nc(-c3ccncc3)c(-c3ccc(F)cc3)[nH]2)cc1` (stereo not shown) [SB203580], the “decrease of Protandim®-mediated increase in HO-1 expression in presence of inhibitor” value (HO-1 [1]; [9]) was 50%.
